Consider three molecules from US9828644B2, “BACH2 repression in cells” (UNIVERSITE LIBRE DE BRUXELLES, priority 2010, dated 2017).

The subject of experiment [1] is Fas L mRNA in CD4+ cells from a patient having a hemizigous deletion of BACH2 gene. As to the kind of experiment: Fas L mRNA abundance in CD4+ cells ex vivo in function of etoposide treatment. Type of experiment: cell-based, human. The following applies: CD4+ cells having lost one copy of BACH2, compared with control CD4+ cells from a healthy donor. An excerpt:
This observation is further confirmed by the ex-vivo analysis shown at FIG. 8, wherein, clearly, CD4+ T cells having hemizigous BACH2 fail to express FasL mRNA.

The test system of experiment [2] is shRNA CTRL Jurkat clones (E6.1 Jurkat T cell line). As to the kind of experiment: Apoptosis assay (annexin V-FITC and PI staining, flow cytometry) in shRNA CTRL Jurkat clones. Type of experiment: cell-based. As to conditions: for Apoptosis response % shRNACTRL: shRNA CTRL Jurkat clones. As to the method: (§1) The apoptosis was assessed by flow cytometry. Columns with standard deviation represent the mean percentage of 3 experiments.
(§2) Histograms of gated cells represent early and late apoptotic populations. As shown in the left panel, 42% of treated shRNA CTRL cells are in apoptosis whereas 18% of apoptotic shRNA BACH2 cells are observed after BACH2 repression
(§3) The inventors firstly added FAS ligand (FASLG/TNFSF6) or PMA (phorbol myristic acetate) (see Table 2) to control or to cells transfected with BACH2 sh RNA. They further treated control and transfected cells (with BACH2 sh RNA) by a 18-hours stimulation with anti-CD2, anti-CD28 or anti-CD3 antibodies.
A general note: Flow cytometry measures light scatter and fluorescence of single cells or particles in a stream.

The test system of experiment [3] is shRNA BACH2 Jurkat clones (E6.1 Jurkat T cell line). As to the kind of experiment: Apoptosis assay (annexin V-FITC and PI staining, flow cytometry) in shRNA BACH2 Jurkat clones. Type of experiment: cell-based. As to conditions: for Apoptosis response % shRNABACH2: shRNA BACH2 Jurkat clones; for Apoptosis response Difference %: shRNACTRL minus shRNABACH2 Jurkat clones. As to the method:
as §1, §2, §3

On to `COc1cc([C@@H]2c3cc4c(cc3[C@@H](O[C@@H]3O[C@@H]5CO[C@@H](C)O[C@H]5[C@H](O)[C@H]3O)[C@H]3COC(=O)[C@H]23)OCO4)cc(OC)c1O` [Etoposide], for which the “FasL mRNA production upon etoposide exposure” value in experiment [1] is reported as “fails to produce FasL”. In addition, the “cells in apoptosis (early and late apoptotic populations)” value in experiment [2] (clone shRNA CTRL-A, 1 μg/ml etoposide, 18 hrs) worked out at 42%. The “Apoptosis response % shRNACTRL” value in experiment [2] was 41.2 (+/−4.94) %. The “reduction in the number of apoptotic cells (AnnexinV+) in the BACH2-repressed clone” value in experiment [3] (clone shRNA BACH2-C versus shRNA control-A, 1 μg/ml of etoposide) was “two-fold reduction”. The “apoptotic cells (early and late apoptotic populations)” value in experiment [3] (clone shRNA BACH2-C, 1 μg/ml etoposide, 18 hrs) turned out to be 18%. In experiment [3], the “Apoptosis response % shRNABACH2” value was 18.27 (+/−2.71) % and the “Apoptosis response Difference %” value is reported as 23%.

In the case of `CCCCCCCCCCCCCC(=O)O[C@@H]1[C@@H](C)[C@@]2(O)[C@@H](C=C(CO)C[C@]3(O)C(=O)C(C)=C[C@@H]23)[C@@H]2C(C)(C)[C@]12OC(C)=O` [PMA, phorbol myristic acetate], the “Apoptosis response % shRNACTRL” value in experiment [2] is 16.17 (+/−2.26) %. Further, in experiment [3], the “Apoptosis response % shRNABACH2” value was 16.7 (+/−6.12) % and the “Apoptosis response Difference %” value is −0.5%.

B1: Fas-L: FAS ligand (FASLG/TNFSF6) added to Jurkat clones to trigger apoptosis (protein, UniProt P48023 130-281, looked up)
Tumor necrosis factor ligand …: QIGHPSPPPEKKELRKVAHLTGKSNSRSMPLEWEDTYGIVLLSGVKYKKGGLVINETGLYFVYSKVYFRGQSCNNLPLSHKVYMRNSKYPQDLVMMEGKMMSYCTTGQMWARSSYLGAVFNLTSADHLYVNVSELSLVNFEESQTFFGLYKL
B1: the “Apoptosis response % shRNACTRL” value in experiment [2] was 33.18 (+/−2.32) %. Besides, in experiment [3], the “Apoptosis response % shRNABACH2” value is 34.51 (+/−3.75) % and the “Apoptosis response Difference %” value is −1.3%.
